Test results taken from ChEMBL document CHEMBL6078649, “Discovery of Chalcone Derivatives as Bifunctional Molecules with Anti-SARS-CoV-2 and Anti-inflammatory Activities” (J Nat Prod, 2024).
Activity calls are given as the source filed them. The rule behind the calls is not given here.

Experiments:
[1] = Cytotoxicity against human Huh-7 cells harboring viral replicon/EGFP/Neo genes assessed as cell viability at 5 uM incubated for 24 hrs by Cell Titer Glo assay relative to control; format: toxicity, cell-based; details: read-out: Activity
[2] = Cytotoxicity against mouse RAW264.7 cells assessed as cell viability at 1 uM incubated for 24 hrs by CCK8 assay relative to control; format: toxicity, cell-based; details: read-out: Activity
[3] = molecular target: T1, Replicase polyprotein 1ab (Severe acute respiratory syndrome coronavirus 2, UniProt P0DTD1)
[4] = molecular target: Replicase polyprotein 1ab (Severe acute respiratory syndrome coronavirus 2) (UniProt P0DTD1); assay: Inhibition of SARS-CoV-2 3CLPro using DabcylKNSTLQSGLRK-Edans as substrate at 5 uM preincubated for 30 mins followed by substrate addition measured after 20 mins by FRET assay relative to control; details: time 50.0 min
[5] = Cytotoxicity against mouse RAW264.7 cells assessed as cell viability at 10 uM incubated for 24 hrs by CCK8 assay relative to control; format: toxicity, cell-based; details: read-out: Activity
[6] = molecular target: Replicase polyprotein 1ab (Severe acute respiratory syndrome coronavirus 2) (UniProt P0DTD1); assay: Inhibition of SARS-CoV-2 3CLPro using DabcylKNSTLQSGLRK-Edans as substrate at 50 uM preincubated for 30 mins followed by substrate addition measured after 20 mins by FRET assay relative to control; details: time 50.0 min
[7] = Cytotoxicity against human Huh-7 cells harboring viral replicon/EGFP/Neo genes assessed as cell viability at 50 uM incubated for 24 hrs by Cell Titer Glo assay relative to control; format: toxicity, cell-based; details: read-out: Activity
[8] = Cytotoxicity against human Huh-7 cells harboring viral replicon/EGFP/Neo genes assessed as cell viability incubated for 24 hrs by Cell Titer Glo assay; format: toxicity, cell-based
[9] = test system: RAW264.7; assay: Anti-inflammatory activity against mouse RAW264.7 cells assessed as inhibition of LPS-induced NO production at 1 uM preincubated for 1 hr followed by LPS treatment measured after 24 hrs relative to control; format: functional; details: time 25 hrs
[10] = Cytotoxicity against mouse RAW264.7 cells assessed as cell viability at 50 uM incubated for 24 hrs by CCK8 assay relative to control; format: toxicity, cell-based; details: read-out: Activity
[11] = test system: RAW264.7; assay: Anti-inflammatory activity against mouse RAW264.7 cells assessed as inhibition of LPS-induced NO production at 10 uM preincubated for 1 hr followed by LPS treatment measured after 24 hrs relative to control; format: functional; details: time 25 hrs
[12] = molecular target: Replicase polyprotein 1ab (Severe acute respiratory syndrome coronavirus 2) (UniProt P0DTD1); assay: Covalent binding affinity to SARS-CoV-2 3CLPro at 90 uM by MS analysis
[13] = molecular target: Transmembrane protease serine 2 (Homo sapiens) (UniProt O15393); assay: Inhibition of TMPRSS2 (unknown origin) using Boc-GIn-Ala-Arg-AMC as substrate at 10 uM preincubated for 60 mins followed by substrate addition by fluorescence based assay
[14] = molecular target: Cathepsin B (Homo sapiens) (UniProt P07858); assay: Inhibition of CTSB (unknown origin) using Z-Phe-ArgAMC as substrate at 10 uM preincubated for 30 mins followed by substrate addition by fluorescence based analysis
[15] = test system: GES1; assay: Inhibition of cell proliferation of human GES1 cells at 10 uM; format: functional, cell-based
[16] = molecular target: Procathepsin L (Homo sapiens) (UniProt P07711); assay: Inhibition of CTSL (unknown origin) using Z-Phe-ArgAMC as substrate at 10 uM preincubated for 30 mins followed by substrate addition by fluorescence based analysis
[17] = test system: HOS-TE85; assay: Inhibition of cell proliferation of human MNNG/HOS cells at 10 uM; format: functional, cell-based
[18] = molecular target: T1, Replicase polyprotein 1ab; assay: (§1) Mixed inhibition of SARS-CoV-2 3CLPro using DabcylKNSTLQSGLRK-Edans as substrate by FRET assay
[19] = molecular target: Replicase polyprotein 1ab (Severe acute respiratory syndrome coronavirus 2) (UniProt P0DTD1); assay: as §1
[20] = test system: MGC-803; assay: Inhibition of cell proliferation of human MGC-803 cells at 10 uM; format: functional, cell-based
[21] = test system: KHOS/NP; assay: Inhibition of cell proliferation of human KHOS/NP cells at 10 uM; format: functional, cell-based
[22] = molecular target: T2, Chymotrypsin-C (Homo sapiens) (UniProt Q99895); assay: Inhibition of human CTRC using succinyl-Ala-Ala-Pro-Phe-p-nitroanilide as substrate at 10 uM preincubated for 30 mins followed by trypsin treatment for 1 hr and subsequent addition of substrate by absorbance based assay
T2 sequence (whole entry): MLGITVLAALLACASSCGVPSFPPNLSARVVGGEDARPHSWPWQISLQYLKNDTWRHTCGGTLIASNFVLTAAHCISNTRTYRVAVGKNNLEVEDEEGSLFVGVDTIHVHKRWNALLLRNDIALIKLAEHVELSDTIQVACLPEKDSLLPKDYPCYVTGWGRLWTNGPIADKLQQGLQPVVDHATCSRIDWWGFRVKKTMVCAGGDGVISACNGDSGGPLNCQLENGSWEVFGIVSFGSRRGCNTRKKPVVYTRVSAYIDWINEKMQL

[23] = molecular target: T1, Replicase polyprotein 1ab; assay: Inhibition of SARS-CoV-2 3CLPro using DabcylKNSTLQSGLRK-Edans as substrate measured after 3 mins by FRET assay
[24] = test system: SJSA-1; assay: Inhibition of cell proliferation of human SJSA-1 cells at 10 uM; format: functional, cell-based
[25] = molecular target: T1, Replicase polyprotein 1ab; assay: Inhibition of SARS-CoV-2 3CLPro using DabcylKNSTLQSGLRK-Edans as substrate measured after 60 mins by FRET assay
[26] = test system: 143B; assay: Inhibition of cell proliferation of human 143B cells at 10 uM; format: functional, cell-based

Sequence of Transmembrane protease serine 2 (Homo sapiens) (O15393 1-255 limits assumed): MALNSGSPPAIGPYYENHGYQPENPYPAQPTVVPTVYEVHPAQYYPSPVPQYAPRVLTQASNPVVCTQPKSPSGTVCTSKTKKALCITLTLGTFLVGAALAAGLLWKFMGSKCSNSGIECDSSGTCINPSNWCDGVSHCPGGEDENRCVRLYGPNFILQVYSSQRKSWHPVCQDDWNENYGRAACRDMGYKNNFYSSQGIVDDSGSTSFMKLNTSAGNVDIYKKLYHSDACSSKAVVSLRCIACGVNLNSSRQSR
Sequence of Transmembrane protease serine 2 (Homo sapiens) (O15393 256-492 limits assumed): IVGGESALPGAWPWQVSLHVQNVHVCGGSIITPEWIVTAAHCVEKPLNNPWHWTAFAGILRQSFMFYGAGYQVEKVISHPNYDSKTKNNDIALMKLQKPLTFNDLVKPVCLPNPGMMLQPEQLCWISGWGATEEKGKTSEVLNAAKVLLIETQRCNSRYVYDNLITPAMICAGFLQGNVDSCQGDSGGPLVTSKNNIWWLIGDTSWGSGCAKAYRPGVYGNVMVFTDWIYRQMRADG
Sequence of Procathepsin L (Homo sapiens) (P07711 114-333 limits assumed): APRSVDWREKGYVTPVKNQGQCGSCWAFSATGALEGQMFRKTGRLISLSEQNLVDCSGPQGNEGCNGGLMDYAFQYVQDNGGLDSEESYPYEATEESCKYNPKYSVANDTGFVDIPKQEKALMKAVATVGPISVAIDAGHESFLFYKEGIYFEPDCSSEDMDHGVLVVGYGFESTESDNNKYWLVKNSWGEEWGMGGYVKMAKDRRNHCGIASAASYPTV

Row | Structure (SMILES) | viability at 24 h, 5 µM [1] | viability at 24 h, 1 µM [2] | IC50 [3] | inhibition [4] | viability at 24 h, 10 µM [5] | inhibition [6] | viability at 24 h, 50 µM [7] | inhibition at 1 µM [9] | viability at 24 h, 50 µM [10] | inhibition at 10 µM [11] | other results
1 | CC(=O)Oc1c(Cl)c(/C=C/C(=O)c2ccc(F)cc2)c(Cl)c(OC(C)=O)c1OC(C)=O | 111% | 93.8% | 247 nM | 1.1% | 97.5% | 1% | 62% | 37.4% | 54.1% | 85.2% | CC50 at 24 h [8]: > 50 µM
2 | O=C(CCc1cc(O)c(O)c(O)c1)c1ccc(F)cc1 | 110% | 117% | 1770 nM | 21.4% | 103% | 6.3% | 92.7% | 20.8% | 87.6% | 54.1% | CC50 at 24 h [8]: > 100 µM
3 | O=C(/C=C/c1c(Cl)c(O)c(O)c(O)c1Cl)c1ccc(F)cc1 | 104% | 93.7% | 83.2 nM | 0.8% | 48.6% | -0.1% | 50% | 29.1% | 114% | 81.1% | Activity [12]: inactive; inhibition [13]: Active; inhibition [14]: inactive; inhibition [15]: inactive; inhibition [16]: inactive; inhibition [17]: inactive; Ki [18]: 200 nM; inhibition [19]: Dose-dependent-effect; The Result Suggests That Compound May Bind To Both Enzymatic Active Site And Allosteric Sites; inhibition [20]: inactive; inhibition [21]: inactive; inhibition [22]: Active; IC50 [23]: 211 nM; inhibition [24]: inactive; CC50 at 24 h [8]: 41.2 µM; IC50 [25]: 110 nM; inhibition [26]: inactive
4 | O=C(/C=C/c1c(Cl)c(O)c(O)c(O)c1Cl)c1ccc(F)cc1Cl | 104% | 118% | 310 nM | 1.1% | 122% | 1.6% | 56.9% | 16.6% | 52.4% | 87.3% | –
5 | O=C(/C=C/c1c(Cl)c(O)c(O)c(O)c1Cl)c1ccc([N+](=O)[O-])cc1 | 110% | 115% | 276 nM | 0.6% | 110% | -0.2% | 74.7% | 2.1% | 77.4% | 70.7% | –
6 | O=C(/C=C/c1c(Cl)c(O)c(O)c(O)c1Cl)c1ccc(C(F)(F)F)cc1 | 101% | 76.7% | 442 nM | 2% | 36.6% | 1.5% | 43.8% | 52% | 6.9% | 70.7% | –
7 | O=C(/C=C/c1cc(O)c(O)c(O)c1)c1ccc(F)cc1 | 95.2% | 116% | 261 nM | 2.5% | 109% | 0.5% | 63.4% | 4.2% | 100% | 68.6% | Activity [12]: Active; inhibition [13]: inactive; inhibition [14]: inactive; Ki [3]: 800 nM; inhibition [16]: inactive; inhibition [22]: Active; IC50 [23]: 461 nM; CC50 at 24 h [8]: > 50 µM; IC50 [25]: 93.4 nM
8 | O=C(/C=C/c1c(Cl)c(O)c(O)c(O)c1Cl)c1ccccc1 | 105% | 95.5% | 143 nM | 1% | 66.8% | -0.3% | 64.2% | 14.6% | 96.9% | 39.5% | –
9 | O=C(/C=C/c1cc(O)c(O)c(O)c1Cl)c1ccc(F)cc1 | 106% | 111% | 429 nM | 1.1% | 110% | 1.1% | 71.4% | -4.2% | 104% | 72.8% | –
10 | O=C(/C=C/c1c(Cl)c(O)c(O)c(O)c1Cl)c1ccc(O)cc1 | 105% | 122% | 192 nM | 1.3% | 95.6% | 1.9% | 87.9% | 16.6% | 114% | 37.4% | –
11 | O=C(/C=C/c1c(Cl)c(O)c(O)c(O)c1Cl)c1ccco1 | 102% | 82% | 95.5 nM | -1.1% | 82.2% | -0.7% | 70.7% | 45.7% | 94.7% | 62.4% | –
12 | O=C(/C=C/c1c(Cl)c(O)c(O)c(O)c1Cl)c1c(Cl)c(O)c(O)c(O)c1Cl | 111% | 51.2% | 115 nM | 0% | 37% | 0.2% | 99.3% | 22.9% | 82.4% | 76.9% | –
13 | O=C(/C=C/c1c(Cl)c(O)c(O)c(O)c1Cl)c1ccc(-c2ccc(F)cc2)cc1 | 86.5% | 55.5% | 1070 nM | -0.6% | 33.1% | 0.6% | 10.2% | 39.5% | 11.2% | 89.4% | –
14 | O=C(/C=C/c1c(Cl)c(O)c(O)c(O)c1Cl)c1c(Cl)cc(Cl)cc1Cl | – | 78.7% | 404 nM | 1.2% | 58.5% | 0.7% | – | 33.3% | 13% | 79% | –
